Key:
[1] = Half life of hydrolysis of compound at pH 7.4, 37 degree C; assay type: ADME; settings: buffer
Beta-lactamase = Beta-lactamase (Enterobacter cloacae, UniProt P05364); test: Beta-Lactamase inhibition activity after 15 min of pre-incubation with the enzyme isolated from Enterobacter cloacae
Beta-lactamase TEM = Beta-lactamase TEM (Escherichia coli, UniProt P62593); test: Beta-Lactamase inhibition activity after 15 min of pre-incubation with the enzyme isolated from Escherichia coli 205 TEM
Chain of Beta-lactamase TEM (P62593 whole entry): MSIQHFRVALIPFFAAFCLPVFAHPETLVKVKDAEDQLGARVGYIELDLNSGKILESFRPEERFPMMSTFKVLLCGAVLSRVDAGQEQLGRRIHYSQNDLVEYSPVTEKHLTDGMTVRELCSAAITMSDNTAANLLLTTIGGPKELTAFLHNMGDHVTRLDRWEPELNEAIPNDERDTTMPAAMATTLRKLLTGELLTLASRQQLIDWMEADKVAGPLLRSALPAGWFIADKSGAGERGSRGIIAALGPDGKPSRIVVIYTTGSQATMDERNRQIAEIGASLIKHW

Enterococcus sp. = test: Minimum inhibitory concentration against Enterobacter coccus in DIFCO nutrient agar after 18 hr incubation period at 37 degree C; assay type: functional
Escherichia coli [2] = test: Minimum inhibitory concentration against Escherichia coli 1103 in DIFCO nutrient agar after 18 hr incubation period at 37 degree C; assay type: functional
Escherichia coli [3] = test: Minimum inhibitory concentration against Escherichia coli 205 TEM in DIFCO nutrient agar after 18 hr incubation period at 37 degree C; assay type: functional
Enterobacter cloacae = test: Minimum inhibitory concentration against Enterobacter cloacae in DIFCO nutrient agar after 18 h incubation period at 37 degree C; assay type: functional
Pseudomonas aeruginosa [4] = test: Minimum inhibitory concentration against Pseudomonas aeruginosa in DIFCO nutrient agar after 18 hr incubation period at 37 degree C; assay type: functional
Pseudomonas aeruginosa [5] = test: Minimum inhibitory concentration against Pseudomonas aeruginosa. res in DIFCO nutrient agar after 18 hr incubation period at 37 degree C; assay type: functional
Staphylococcus aureus [6] = test: Minimum inhibitory concentration against Staphylococcus aureus 1104 in DIFCO nutrient agar after 18 hr incubation period at 37 degree C; assay type: functional
Staphylococcus aureus [7] = test: Minimum inhibitory concentration against Staphylococcus aureus res in DIFCO nutrient agar after 18 hr incubation period at 37 degree C; assay type: functional
Staphylococcus aureus [8] = test: Minimum inhibitory concentration against Staph 25768 in DIFCO nutrient agar after 18 hr incubation period at 37 degree C; assay type: functional
[9] = Minimum inhibitory concentration against S. Innsbruck in DIFCO nutrient agar after 18 h incubation period at 37 degree C
Staphylococcus aureus [10] = test: Minimum inhibitory concentration against Staphylococcus aureus in DIFCO nutrient agar after 18 hr incubation period at 37 degree C; assay type: functional

Chain of Beta-lactamase (P05364 whole entry): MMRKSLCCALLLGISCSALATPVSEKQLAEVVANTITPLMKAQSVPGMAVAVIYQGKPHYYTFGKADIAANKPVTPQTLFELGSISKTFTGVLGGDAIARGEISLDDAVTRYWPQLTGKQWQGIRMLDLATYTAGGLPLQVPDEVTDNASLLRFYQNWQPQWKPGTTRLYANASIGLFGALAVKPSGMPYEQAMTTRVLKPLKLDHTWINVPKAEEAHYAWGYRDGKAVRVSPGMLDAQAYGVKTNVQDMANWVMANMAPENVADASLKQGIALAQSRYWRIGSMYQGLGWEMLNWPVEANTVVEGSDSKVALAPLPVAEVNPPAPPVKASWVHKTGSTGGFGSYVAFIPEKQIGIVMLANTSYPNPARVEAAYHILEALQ

SMILES	half-life [1]	IC50 (Beta-lactamase)	IC50 (Beta-lactamase TEM)	MIC (Enterococcus sp.)	MIC (Escherichia coli [2])	MIC (Escherichia coli [3])	MIC (Enterobacter cloacae)	MIC (Pseudomonas aeruginosa [4])	MIC (Pseudomonas aeruginosa [5])	MIC (Staphylococcus aureus [6])	MIC (Staphylococcus aureus [7])	MIC (Staphylococcus aureus [8])	MIC [9]	IC50 (Beta-lactamase TEM; read-out: IC50)	MIC (Staphylococcus aureus [10])
COC1=C(C(=O)[O-])N2C(=O)[C@H]([C@@H](C)O)[C@H]2C1.[K+]	5.75 h	510 nM	0.00034 M l-1	50 µg/mL	2 µg/mL	1 µg/mL	5 µg/mL	> 50 µg/mL	> 50 µg/mL	1 µg/mL	2 µg/mL	5 µg/mL	25 µg/mL		
COC1=C(C(=O)[O-])N2C(=O)[C@H]([C@@H](C)O)C2[C@H]1C.[K+] (some centres undefined)	72 h	2100 nM		> 50 µg/mL	1 µg/mL	0.5 µg/mL	5 µg/mL	> 50 µg/mL	> 50 µg/mL	25 µg/mL	25 µg/mL	> 50 µg/mL	> 50 µg/mL	130 nM	
COC1=C(C(=O)[O-])N2C(=O)[C@H]([C@@H](C)O)C2[C@@H]1C.[K+] (some centres undefined)	3.25 h	82 nM		> 50 µg/mL	10 µg/mL	5 µg/mL	25 µg/mL	> 50 µg/mL	> 50 µg/mL	< 0.5 µg/mL		5 µg/mL	> 50 µg/mL	230 nM	1 µg/mL
